One block for each molecule: values may come before it. Bridge positions count the residues as written; N and C are the ends. Peptide text beside a SMILES is read from it.
Target: porcine pancreatic elastase (Sus scrofa, UniProt P00772)
Assay: Elastase inhibitory activity of peptides (AAApNA hydrolysis; IC50, Ki, residual activity)
Assay type: biochemical
Conditions: for IC50 / Residual activity of elastase: elastase 0.5 μM, AAApNA 1 mM
Protocol: The inhibition constants of various synthetic active peptide inhibitors (molecular scaffolds) against seine proteases were measured. The substrates N-succinyl-Ala-Ala-Pro-Phe-p-nitroaniline (AAPFpNA), Nα—Benzoyl-L-arginine-4-nitroaniline hydrochloride (BApNA) and N-succinyl-[…] (AAApNA) are used in competitive binding reaction to determine the inhibitory activities against α-chymotrypsin, bovine trypsin, and porcine pancreatic elastase, respectively. Experiments for α-chymotrypsin and bovine trypsin inhibition were measured in 20 mM CaCl2, 50 mM Tris-HCl buffer (pH 7.8), and that for porcine elastase inhibition was measured in 50 mM Tris-HCl buffer (pH 8.0). The concentration of the peptide was measured using optical density (OD) at 280 nm. The Michaelis constant (Km) of the enzyme hydrolysis substrate is calculated from the initial rate of substrate hydrolysis at 405 nm. The absorbance value of the substrate was measured at 405 nm after complete hydrolysis. All data were processed using nonlinear regression.
• (1) Added a total 198 μL of reaction buffer (20 mM CaCl2, 50 mM Tris-HCl (pH 8.0)) into the 96 well plate, followed by preheating at 37° C. for 15 min. Then added 2 μL of different concentrations of substrates (pNA, dissolved in DMSO), and mixed by centrifugation at 500 rpm for 1 min. Finally, the plate was incubated at 37° C. for 30 min, and the absorbance value at 405 nm was measured. In the 200 μL of reaction system, the final concentrations of pNA were 0, 0.025, 0.05, 0.075, 0.1, 0.125, 0.15, 0.175, and 0.2 mM, respectively. Make three repetitions for each concentration and plot the OD405 m value with pNA concentration to obtain the standard curve. • (2) Added a total 190 μL of reaction buffer (20 mM CaCl2, 50 mM Tris-HCl (pH 8.0)) and 8 μL of 4.375 μM elastase into the 96 well plate, followed by preheating at 37° C. for 5 min. Then added 2 μL of different concentrations of substrates (AAApNA, dissolved in DMSO), and mixed by centrifugation at 500 rpm for 1 min. Finally, the plate was incubated at 37° C. for 30 min, and the absorbance value at 405 nm was measured. In the 200 μL of reaction system, the final concentrations of AAApNA were 0, 0.125, 0.166, 0.2, 0.25, 0.33, 0.6, 0.75, and 1.25 mM, respectively. Make three repetitions for each concentration and plot the OD405 nm value with time to obtain the corresponding curve. Divide the slope of the curve by the slope of the standard curve and the enzyme concentration to obtain the initial velocity V0 (mM/(min*mM protein). Plot the initial velocity V0 with the concentration of substrate AAApNA using Prism software, and the Michaelis constant Km value of elastase hydrolyzing AAApNA was obtained.
• (1) Added a total 190 μL of different concentrations of peptides (ECs) against elastase and reaction buffer (20 mM CaCl2, 50 mM Tris-HCl buffer (pH 8.0)) into the pre-cold 96 well plate, followed by preheating at 37° C. for 5 min and centrifugated at 500 rpm for 1 min and allowed to stand for 4 minutes. Then added 8 μL of 12.5 μM elastase and incubated at 37° C. for 10 min and centrifugated at 500 rpm for 1 min and allowed to stand for 9 minutes. Finally, added 2 μL of 100 mM AAApNA, and mixed by centrifugation at 500 rpm for 1 min. The plate was incubated at 37° C. for 60 min, and the absorbance value at 405 nm was measured. Three repetitions were made, and only reaction buffer and substrate were added in the blank control as the minimum absorption value (Min OD405 nm); Only reaction buffer, enzyme and substrate were added in the negative control as the maximum absorption value (Max OD405 nm). • (2) In the 200 μL of reaction system, the final concentrations of elastase and AAApNA were 0.5 μM and 1 mM, respectively. • (3) Data statistics
Residual activity of enzyme (%)=(1−(Max OD405 nm−Sample OD405 nm)/(Max OD405 nm−Min OD405 nm))*100 […]

Sequence of porcine pancreatic elastase (P00772 27-266): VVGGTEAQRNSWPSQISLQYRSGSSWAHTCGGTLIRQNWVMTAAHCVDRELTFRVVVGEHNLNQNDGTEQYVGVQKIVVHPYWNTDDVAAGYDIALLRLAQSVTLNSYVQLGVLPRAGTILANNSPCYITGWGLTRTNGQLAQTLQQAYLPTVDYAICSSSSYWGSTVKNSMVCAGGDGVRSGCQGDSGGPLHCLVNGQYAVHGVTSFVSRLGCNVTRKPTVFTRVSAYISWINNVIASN

SMILES: CC[C@H](C)[C@@H]1NC(=O)[C@@H]2CCCN2C(=O)[C@@H]2CCCN2C(=O)[C@H]([C@@H](C)CC)NC(=O)[C@H](CO)NC(=O)[C@H](CC(C)C)NC(=O)[C@H]([C@@H](C)O)NC(=O)[C@H](C)NC(=O)[C@H](CC(C)C)NC(=O)CNC(=O)[C@@H](N)CSSC[C@@H](C(=O)N[C@@H](CCC(N)=O)C(=O)O)NC1=O [EC7] (H-CGLATLSIPPICQ-OH; disulfide 1-12; N-terminus and C-terminus assumed)
inhibitory activity against elastase (in words): weaker inhibitory activity

SMILES: CC[C@H](C)[C@@H]1NC(=O)[C@H](CO)NC(=O)[C@H](C)NC(=O)[C@H]([C@@H](C)O)NC(=O)[C@H](CCC(=O)O)NC(=O)[C@H](CCCNC(=N)N)NC(=O)CNC(=O)[C@@H](N)CSSC[C@@H](C(=O)N[C@@H](CCCCN)C(=O)O)NC(=O)[C@H](CCC(N)=O)NC(=O)[C@@H]2CCCN2C(=O)[C@@H]2CCCN2C1=O [EC9] (H-CGRETASIPPQCK-OH; disulfide 1-12; N-terminus and C-terminus assumed)
IC50: > 50 µM

SMILES: CC[C@H](C)[C@@H]1NC(=O)[C@@H]2CCCN2C(=O)[C@@H]2CCCN2C(=O)[C@H]([C@@H](C)CC)NC(=O)[C@H](CO)NC(=O)[C@H](C)NC(=O)[C@H]([C@@H](C)O)NC(=O)[C@@H](NC(=O)[C@@H](N)CC(C)C)CSSC[C@@H](C(=O)N[C@@H](CCC(N)=O)C(=O)O)NC1=O [EC12] (H-LCTASIPPICQ-OH; disulfide 2-10; N-terminus and C-terminus assumed)
inhibitory activity against elastase (in words): better inhibitory activity against Elastase | IC50: 0.4 µM | Residual activity of elastase (peptide 0.001 μM): 98.8 ± 1.1% | Residual activity of elastase (peptide 0.01 μM): 97.8 ± 1.0% | Residual activity of elastase (peptide 0.06 μM): 98.2 ± 2.1% | Residual activity of elastase (peptide 0.25 μM): 72.2 ± 5.9% | Residual activity of elastase (peptide 0.3 μM): 59.9 ± 3.2% | Residual activity of elastase (peptide 0.75 μM): 25.1 ± 3.6% | Residual activity of elastase (peptide 1 μM): 12.7 ± 1.0% | Residual activity of elastase (peptide 10 μM): 1.3 ± 0.1% | Residual activity of elastase (peptide 100 μM): 0.2 ± 0.0% | Residual activity of elastase (peptide 1000 μM): 0.3 ± 0.0% | Ki (read-out: Ki against elastase): 110 nM

SMILES: CC[C@H](C)[C@H](N)C(=O)N[C@H]1CSSC[C@@H](C(=O)N[C@H](C(=O)O)C(C)C)NC(=O)[C@H](CCC(N)=O)NC(=O)[C@H](C)NC(=O)[C@@H]2CCCN2C(=O)[C@H]([C@@H](C)CC)NC(=O)[C@H](CO)NC(=O)[C@H](CC(C)C)NC(=O)[C@H]([C@@H](C)O)NC1=O [EC13] (H-ICTLSIPAQCV-OH; disulfide 2-10; N-terminus and C-terminus assumed)
IC50: > 50 µM

SMILES: CC[C@H](C)[C@@H]1NC(=O)[C@H](CO)NC(=O)[C@H](C)NC(=O)[C@H]([C@@H](C)O)NC(=O)[C@H](C)NC(=O)[C@H](Cc2ccc(O)cc2)NC(=O)CNC(=O)[C@@H](N)CSSC[C@@H](C(=O)N[C@@H](Cc2ccc(O)cc2)C(=O)O)NC(=O)[C@H](CCC(N)=O)NC(=O)[C@@H]2CCCN2C(=O)[C@@H]2CCCN2C1=O [EC15] (H-CGYATASIPPQCY-OH; disulfide 1-12; N-terminus and C-terminus assumed)
IC50: > 50 µM

SMILES: CC[C@H](C)[C@@H]1NC(=O)[C@@H]2CCCN2C(=O)[C@@H]2CCCN2C(=O)[C@H]([C@@H](C)CC)NC(=O)[C@H](CO)NC(=O)[C@H](CC(C)C)NC(=O)[C@H]([C@@H](C)O)NC(=O)[C@H](C)NC(=O)[C@H](CC(C)C)NC(=O)CNC(=O)CNC(=O)[C@@H](N)CSSC[C@@H](C(=O)N[C@@H](CCC(N)=O)C(=O)O)NC1=O [EC17] (H-CGGLATLSIPPICQ-OH; disulfide 1-13)
IC50: > 50 µM

SMILES: CC[C@H](C)[C@@H]1NC(=O)[C@H](CO)NC(=O)[C@H](C)NC(=O)[C@H]([C@@H](C)O)NC(=O)[C@@H](NC(=O)[C@@H](N)CC(C)C)CSSC[C@@H](C(=O)N[C@@H](CCC(N)=O)C(=O)O)NC(=O)[C@H](CCC(N)=O)NC(=O)[C@@H]2CCCN2C(=O)[C@@H]2CCCN2C1=O [EC18] (H-LCTASIPPQCQ-OH; disulfide 2-10; N-terminus and C-terminus assumed)
Residual activity of elastase (peptide 0.001 μM): 99.2 ± 2.0% | Residual activity of elastase (peptide 0.01 μM): 100.6 ± 1.5% | Residual activity of elastase (peptide 0.1 μM): 97.0 ± 4.0% | Residual activity of elastase (peptide 0.2 μM): 100.2 ± 2.0% | Residual activity of elastase (peptide 0.4 μM): 90.3 ± 0.5% | Residual activity of elastase (peptide 0.6 μM): 73.5 ± 4.8% | Residual activity of elastase (peptide 1 μM): 49.4 ± 3.3% | Residual activity of elastase (peptide 6 μM): 8.4 ± 0.4% | Residual activity of elastase (peptide 10 μM): 3.6 ± 0.5% | Residual activity of elastase (peptide 100 μM): 0.1 ± 0.0%

The next lines start with the values.

IC50: > 50 µM
SMILES: CC[C@H](C)[C@@H]1NC(=O)[C@@H]2CCCN2C(=O)[C@@H]2CCCN2C(=O)[C@H]([C@@H](C)CC)NC(=O)[C@H](CO)NC(=O)[C@H](C)NC(=O)[C@H]([C@@H](C)O)NC(=O)[C@H](C)NC(=O)[C@H](CC(C)C)NC(=O)CNC(=O)[C@@H](N)CSSC[C@@H](C(=O)N[C@@H](CCC(N)=O)C(=O)O)NC1=O [EC6] (H-CGLATASIPPICQ-OH; disulfide 1-12; N-terminus and C-terminus assumed)

IC50: > 50 µM
SMILES: CC[C@H](C)[C@@H]1NC(=O)[C@@H]2CCCN2C(=O)[C@@H]2CCCN2C(=O)[C@H]([C@@H](C)CC)NC(=O)[C@H](CO)NC(=O)[C@H](C)NC(=O)[C@H]([C@@H](C)O)NC(=O)[C@H](CCC(=O)O)NC(=O)[C@H](CCCNC(=N)N)NC(=O)CNC(=O)[C@@H](N)CSSC[C@@H](C(=O)N[C@@H](CCC(N)=O)C(=O)O)NC1=O [EC8] (H-CGRETASIPPICQ-OH; disulfide 1-12; N-terminus and C-terminus assumed)

IC50: > 50 µM
SMILES: CC[C@H](C)[C@@H]1NC(=O)[C@H](CO)NC(=O)[C@H](C)NC(=O)[C@H]([C@@H](C)O)NC(=O)[C@H](CCC(=O)O)NC(=O)[C@H](CCCNC(=N)N)NC(=O)CNC(=O)[C@@H](N)CSSC[C@@H](C(=O)O)NC(=O)[C@H](CCCCN)NC(=O)[C@H](CCC(N)=O)NC(=O)[C@@H]2CCCN2C(=O)[C@@H]2CCCN2C1=O [EC10] (H-CGRETASIPPQKC-OH; disulfide 1-13; N-terminus and C-terminus assumed)

IC50: > 50 µM
SMILES: CC[C@H](C)[C@@H]1NC(=O)[C@H](CO)NC(=O)[C@H](C)NC(=O)[C@H]([C@@H](C)O)NC(=O)[C@H](CCC(=O)O)NC(=O)[C@H](CCCNC(=N)N)NC(=O)CNC(=O)[C@@H](N)CSSC[C@@H](C(=O)O)NC(=O)CNC(=O)[C@H](CCCCN)NC(=O)[C@H](CCC(N)=O)NC(=O)[C@@H]2CCCN2C(=O)[C@@H]2CCCN2C1=O [EC11] (H-CGRETASIPPQKGC-OH; disulfide 1-14; N-terminus and C-terminus assumed)

IC50: > 50 µM
SMILES: CC[C@H](C)[C@@H]1NC(=O)[C@@H]2CCCN2C(=O)[C@@H]2CCCN2C(=O)[C@H]([C@@H](C)CC)NC(=O)[C@H](CO)NC(=O)[C@H](C)NC(=O)[C@H]([C@@H](C)O)NC(=O)[C@H](C)NC(=O)[C@H](CC(C)C)NC(=O)CNC(=O)CNC(=O)[C@@H](N)CSSC[C@@H](C(=O)N[C@@H](CCC(N)=O)C(=O)O)NC1=O [EC16] (H-CGGLATASIPPICQ-OH; disulfide 1-13; N-terminus and C-terminus assumed)
